In publication PMC12335538 (2025):

System: 62 CA8 (RNA, riboswitch) GGAGACCGAAAGCUGGGGACGACCCCAGAAAGACCAAAAGCUGGGGACGACCCCAGAAAGACCGA
Test: in-line probing
Conditions: 20 mM MgCl2, 100 mM KCl; 50 mM Tris pH 8.3, room temperature, 48 h; apparent; mean of three replicates; Hill 1.50 ± 0.3

- KD: 111 ± 3 µM
SMILES: N=C(N)N
